Numbers after ± are expanded uncertainties.
Assay: excess molar enthalpy (molar enthalpy of mixing); xn = mol fraction of the nth substance listed
Conditions: Liquid, Flow calorimetry

COC(C)=O [methyl ethanoate] + CCCCO
excess molar enthalpy [kcal/mol]
Conditions	5000 kPa	10000 kPa
298.15 K, x1 = 0.05	0.0776 ± 0.0017	0.077 ± 0.00167
298.15 K, x1 = 0.1	0.145 ± 0.0021	0.144 ± 0.00208
298.15 K, x1 = 0.149	0.201 ± 0.00263	0.2 ± 0.00239
298.15 K, x1 = 0.199	0.248 ± 0.00287	–
298.15 K, x1 = 0.201	–	0.249 ± 0.00287
298.15 K, x1 = 0.249	0.287 ± 0.00335	–
298.15 K, x1 = 0.251	–	0.288 ± 0.00311
298.15 K, x1 = 0.3	0.32 ± 0.00359	0.318 ± 0.00359
298.15 K, x1 = 0.349	0.343 ± 0.00382	–
298.15 K, x1 = 0.351	–	0.343 ± 0.00359
298.15 K, x1 = 0.399	0.359 ± 0.00382	–
298.15 K, x1 = 0.401	–	0.36 ± 0.00382
298.15 K, x1 = 0.449	–	0.369 ± 0.00382
298.15 K, x1 = 0.45	0.37 ± 0.00406	–
298.15 K, x1 = 0.5	–	0.372 ± 0.00406
298.15 K, x1 = 0.501	0.372 ± 0.00406	–
298.15 K, x1 = 0.549	–	0.368 ± 0.00382
298.15 K, x1 = 0.55	0.368 ± 0.00406	–
298.15 K, x1 = 0.599	–	0.358 ± 0.00382
298.15 K, x1 = 0.6	0.359 ± 0.00382	–
298.15 K, x1 = 0.65	–	0.34 ± 0.00359
298.15 K, x1 = 0.651	0.341 ± 0.00359	–
298.15 K, x1 = 0.699	0.316 ± 0.00335	–
298.15 K, x1 = 0.701	–	0.314 ± 0.00335
298.15 K, x1 = 0.751	0.284 ± 0.00311	0.284 ± 0.00311
298.15 K, x1 = 0.8	–	0.244 ± 0.00287
298.15 K, x1 = 0.801	0.244 ± 0.00263	–
298.15 K, x1 = 0.851	0.194 ± 0.00217	0.196 ± 0.00239
298.15 K, x1 = 0.899	0.141 ± 0.00165	0.141 ± 0.00206
298.15 K, x1 = 0.951	0.0726 ± 0.000956	0.0726 ± 0.00163
308.15 K, x1 = 0.047	–	0.0732 ± 0.00174
308.15 K, x1 = 0.098	–	0.147 ± 0.0022
308.15 K, x1 = 0.146	–	0.208 ± 0.00263
308.15 K, x1 = 0.193	–	0.257 ± 0.00287
308.15 K, x1 = 0.243	–	0.301 ± 0.00335
308.15 K, x1 = 0.291	–	0.335 ± 0.00359
308.15 K, x1 = 0.343	–	0.363 ± 0.00382
308.15 K, x1 = 0.39	–	0.382 ± 0.00406
308.15 K, x1 = 0.44	–	0.395 ± 0.0043
308.15 K, x1 = 0.492	–	0.398 ± 0.0043
308.15 K, x1 = 0.541	–	0.396 ± 0.0043
308.15 K, x1 = 0.591	–	0.385 ± 0.00406
308.15 K, x1 = 0.641	–	0.369 ± 0.00406
308.15 K, x1 = 0.692	–	0.344 ± 0.00382
308.15 K, x1 = 0.744	–	0.309 ± 0.00335
308.15 K, x1 = 0.794	–	0.267 ± 0.00311
308.15 K, x1 = 0.896	–	0.158 ± 0.00217
308.15 K, x1 = 0.947	–	0.0845 ± 0.00184

COC(C)=O [methyl ethanoate] + CCCO
excess molar enthalpy [kcal/mol]
Conditions	298.15 K	333.15 K
5000 kPa, x1 = 0.051	0.0748 ± 0.00172	–
5000 kPa, x1 = 0.099	0.143 ± 0.0021	–
5000 kPa, x1 = 0.149	0.201 ± 0.00263	–
5000 kPa, x1 = 0.199	0.248 ± 0.00287	–
5000 kPa, x1 = 0.251	0.287 ± 0.00335	–
5000 kPa, x1 = 0.3	0.316 ± 0.00359	–
5000 kPa, x1 = 0.349	0.338 ± 0.00359	–
5000 kPa, x1 = 0.4	0.354 ± 0.00382	–
5000 kPa, x1 = 0.451	0.363 ± 0.00382	–
5000 kPa, x1 = 0.501	0.364 ± 0.00382	–
5000 kPa, x1 = 0.551	0.358 ± 0.00382	–
5000 kPa, x1 = 0.6	0.347 ± 0.00382	–
5000 kPa, x1 = 0.65	0.33 ± 0.00359	–
5000 kPa, x1 = 0.701	0.305 ± 0.00335	–
5000 kPa, x1 = 0.749	0.273 ± 0.00311	–
5000 kPa, x1 = 0.8	0.236 ± 0.00263	–
5000 kPa, x1 = 0.85	0.191 ± 0.00215	–
5000 kPa, x1 = 0.899	0.136 ± 0.0016	–
5000 kPa, x1 = 0.951	0.0711 ± 0.000956	–
10000 kPa, x1 = 0.051	0.0813 ± 0.0017	0.0961 ± 0.00206
10000 kPa, x1 = 0.099	0.145 ± 0.0021	0.168 ± 0.00237
10000 kPa, x1 = 0.149	0.202 ± 0.00239	–
10000 kPa, x1 = 0.15	–	0.232 ± 0.00287
10000 kPa, x1 = 0.199	0.248 ± 0.00287	–
10000 kPa, x1 = 0.2	–	0.287 ± 0.00335
10000 kPa, x1 = 0.25	0.287 ± 0.00311	0.329 ± 0.00359
10000 kPa, x1 = 0.3	0.316 ± 0.00335	0.363 ± 0.00382
10000 kPa, x1 = 0.349	0.337 ± 0.00359	–
10000 kPa, x1 = 0.35	–	0.389 ± 0.00406
10000 kPa, x1 = 0.399	0.353 ± 0.00382	0.408 ± 0.0043
10000 kPa, x1 = 0.448	–	0.418 ± 0.0043
10000 kPa, x1 = 0.45	0.361 ± 0.00382	–
10000 kPa, x1 = 0.5	0.362 ± 0.00382	0.422 ± 0.00454
10000 kPa, x1 = 0.548	–	0.419 ± 0.0043
10000 kPa, x1 = 0.55	0.357 ± 0.00382	–
10000 kPa, x1 = 0.599	0.346 ± 0.00359	0.405 ± 0.0043
10000 kPa, x1 = 0.649	0.33 ± 0.00359	–
10000 kPa, x1 = 0.65	–	0.384 ± 0.00406
10000 kPa, x1 = 0.7	0.305 ± 0.00335	0.355 ± 0.00382
10000 kPa, x1 = 0.749	0.274 ± 0.00311	–
10000 kPa, x1 = 0.751	–	0.317 ± 0.00359
10000 kPa, x1 = 0.799	0.237 ± 0.00263	–
10000 kPa, x1 = 0.801	–	0.271 ± 0.00311
10000 kPa, x1 = 0.849	0.189 ± 0.00237	–
10000 kPa, x1 = 0.85	–	0.215 ± 0.00263
10000 kPa, x1 = 0.899	0.135 ± 0.00198	0.15 ± 0.00225
10000 kPa, x1 = 0.949	–	0.0751 ± 0.00182
10000 kPa, x1 = 0.951	0.0683 ± 0.00158	–
